This is an account of results in US7091220B2, “Substituted indole Mannich bases” (Gruenenthal GmbH, priority 1999, dated 2006).

The target in this test is T1, 5-HT transporter (Rattus norvegicus, UniProt P31652).
T1 construct: these vesicular particles were isolated from the pons and medulla oblongata region of the male rat brain; from tissue; host or cells: rat brain synaptosomes (P2 fraction) from pons and medulla oblongata of male rats
T1 sequence (P31652 whole entry): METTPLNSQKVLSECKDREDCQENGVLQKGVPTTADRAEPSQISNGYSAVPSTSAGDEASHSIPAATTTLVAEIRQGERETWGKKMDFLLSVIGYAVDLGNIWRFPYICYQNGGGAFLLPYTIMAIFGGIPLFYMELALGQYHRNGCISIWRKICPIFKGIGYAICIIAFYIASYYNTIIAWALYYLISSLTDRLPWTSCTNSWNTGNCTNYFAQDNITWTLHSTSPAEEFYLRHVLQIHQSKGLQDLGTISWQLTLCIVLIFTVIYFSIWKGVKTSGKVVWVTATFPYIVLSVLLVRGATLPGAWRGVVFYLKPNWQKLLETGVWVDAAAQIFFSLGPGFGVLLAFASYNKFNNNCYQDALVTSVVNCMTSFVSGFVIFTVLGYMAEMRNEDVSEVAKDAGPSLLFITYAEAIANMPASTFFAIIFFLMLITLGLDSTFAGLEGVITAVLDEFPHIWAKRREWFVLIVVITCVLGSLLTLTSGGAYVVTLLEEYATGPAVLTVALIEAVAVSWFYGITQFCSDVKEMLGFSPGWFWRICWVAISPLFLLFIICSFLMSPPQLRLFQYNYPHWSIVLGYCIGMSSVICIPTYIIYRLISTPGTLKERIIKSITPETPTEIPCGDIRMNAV
In words: Inhibition of serotonin re-uptake (5-HT uptake inhibition) in rat brain synaptosomes. Type of test: biochemical. As to conditions: rat brain synaptosomes (P2 fraction, pons and medulla oblongata); means from 2 parallel experiments; concentration not given. The method, then: The investigations of the inhibition of serotonin re-uptake (5-HT uptake inhibition) were carried out by the methods such as are described in M. Ch. Frink, H. -H. -Hennies, W. Englberger, M. Haurand and B. Wilffert, Arzneim.-Forsch./Drug. Res. 46 (III), 11, 1996, pages 1029–1036. They are introduced herewith as reference and thus form part of the disclosure.
To carry out these investigations, synaptosomes were freshly isolated from rat brain areas. In each case the so-called “P2” fraction was used, which was prepared according to the instructions in E. G. Gray and V. P. Whittaker, J. Anat. 76, pages 79–88, 1962. This literature is introduced herewith as reference and thus forms part of the disclosure. For determination of the 5-HT uptake, these vesicular particles were isolated from the pons and medulla oblongata region of the male rat brain.
The following characteristic data were determined for the 5-HT transporter: • 5-HT uptake: Km=0.084±0.011 μM • Vmax: 38.13±4.52 pmol/min/mg protein.
The results of the investigations are in each case stated as means from 2 parallel experiments.
For `Cc1ccc(C(c2c(C)[nH]c3ccccc23)N(C)C)cc1` (stereo not shown) [Example 93, Dimethyl-[(2-methyl-1H-indol-3-yl)-p-tolyl-methyl]-amine], the “Inhibition of 5HT uptake in %” value is listed as 78%.

Turning to `Cc1[nH]c2ccccc2c1C(c1cccc(Oc2ccccc2)c1)N(C)C` (stereo not shown) [Example 95, Dimethyl-[(2-methyl-1H-indol-3-yl)-(3-phenoxy-phenyl)-methyl]-amine], the “Inhibition of 5HT uptake in %” value worked out at 70%.

`Cc1[nH]c2ccccc2c1C(c1c(F)cccc1Cl)N(C)C` (stereo not shown) [Example 74, [(2-Chloro-6-fluoro-phenyl)-(2-methyl-1H-indol-3-yl)-methyl]-dimethyl-amine]: the “Inhibition of 5HT uptake in %” value was 72%.

`COc1ccc(C(c2c(-c3ccc(F)c(Cl)c3)[nH]c3ccccc23)N(C)C)cc1OC` (stereo not shown) [Example 84, [[2-(3-Chloro-4-fluoro-phenyl)-1H-indol-3-yl]-(3,4-dimethoxy-phenyl)-methyl]-dimethyl-amine]: the “Inhibition of 5HT uptake in %” value worked out at 44%.

Take `CN(C)C(c1ccccc1F)c1c[nH]c2ccc(Cl)cc12` (stereo not shown) [Example 85, [(5-Chloro-1H-indol-3-yl)-(2-fluoro-phenyl)-methyl]-dimethyl-amine]: the “Inhibition of 5HT uptake in %” value came out at 44%.

`CCn1c(-c2ccccc2)c(C(c2ccc(C(C)(C)C)cc2)N(C)C)c2ccccc21` (stereo not shown) [Example 72, [(4-tert-Butyl-phenyl)-(1-ethyl-2-phenyl-1H-indol-3-yl)-methyl]-dimethyl-amine]: the “Inhibition of 5HT uptake in %” value is given as 60%.

For the compound `COc1ccccc1C(c1c(C)[nH]c2ccccc12)N(C)C` (stereo not shown) [Example 44, [(2-Methoxyphenyl)-(2-methyl-1H-indol-3-yl)-methyl]-dimethylamine], the “Inhibition of 5HT uptake in %” value is 48%.

As for `COc1ccc(C(c2c(-c3ccc(Cl)cc3)[nH]c3ccccc23)N(C)C)cc1OC` (stereo not shown) [Example 79, [[2-(4-Chloro-phenyl)-1H-indol-3-yl]-(3,4-dimethoxy-phenyl)-methyl]-dimethyl-amine], the “Inhibition of 5HT uptake in %” value came to 50%.

`Cc1ccccc1C(c1c(C)[nH]c2ccccc12)N(C)C` (stereo not shown) [Example 88, Dimethyl-[(2-methyl-1H-indol-3-yl)-o-tolyl-methyl]-amine]: the “Inhibition of 5HT uptake in %” value was determined as 62%.

Take `COc1ccc(C(c2c(-c3ccc(F)cc3)[nH]c3ccccc23)N(C)C)cc1OC` (stereo not shown) [Example 83, [(3,4-Dimethoxy-phenyl)-[2-(4-fluoro-phenyl)-1H-indol-3-yl]-methyl]-dimethylamine]: the “Inhibition of 5HT uptake in %” value was 39%.

For `CCn1c(-c2ccccc2)c(C(c2cccc(Oc3ccccc3)c2)N(C)C)c2ccccc21` (stereo not shown) [Example 96, [(1-Ethyl-2-phenyl-1H-indol-3-yl)-(3-phenoxy-phenyl)-methyl]-dimethylamine], the “Inhibition of 5HT uptake in %” value is reported as 55%.

As for `CCn1c(-c2ccccc2)c(C(c2ccc(OC)c(OC)c2)N(C)C)c2ccccc21` (stereo not shown) [Example 80, [(3,4-Dimethoxy-phenyl)-(1-ethyl-2-phenyl-1H-indol-3-yl)-methyl]-dimethyl-amine], the “Inhibition of 5HT uptake in %” value is 42%.

`Cc1cccc2[nH]cc(C(c3ccc(F)cc3)N(C)C)c12` (stereo not shown) [Example 86, [(4-Fluoro-phenyl)-(4-methyl-1H-indol-3-yl)-methyl]-dimethyl-amine]: the “Inhibition of 5HT uptake in %” value was determined as 41%.

As for `Cc1[nH]c2ccccc2c1C(c1ccc(C(F)(F)F)cc1)N(C)C` (stereo not shown) [Example 103, Dimethyl-[(2-methyl-1H-indol-3-yl)-(4-trifluoromethyl-phenyl)-methyl]-amine], the “Inhibition of 5HT uptake in %” value was 74%.

For `COc1cccc(C(c2c[nH]c3c2CC=C(C(=O)O)C3)N(C)C)c1OC` (stereo not shown) [Example 76, 3-[(2,3-Dimethoxy-phenyl)-dimethylamino-methyl]-4,7-dihydro-1H-indole-6-carboxylic Acid], the “Inhibition of 5HT uptake in %” value is on record as 42%.

Turning to `CCc1cccc2c(C(c3cccc(Oc4ccccc4)c3)N(C)C)c[nH]c12` (stereo not shown) [Example 97, [(7-Ethyl-1H-indol-3-yl)-(3-phenoxy-phenyl)-methyl]-dimethyl-amine], the “Inhibition of 5HT uptake in %” value stood at 79%.
